Source: patent US7119229B2 (priority 2001, dated 2006)
Like-named read-outs stand apart in the source and are kept apart here.

Legend:
TA1535 = test system: TA1535
Procedure: (§1) This assay is carried out to test mutagenicity of chemical substances using histidine auxotrophic strains that are one of Salmonella Typhimurium mutants. […] When various mutagens are added to the culture medium, only revertants generated by reverse mutation survive.
(§2) Ames test was carried out using […]. […] After incubation, the number of revertant colonies was counted. 3 plates were prepared for each test and the average was calculated.

TA100 = test system: TA100
Procedure: as §1, §2

[1] = test system: BALB/c mouse spleen cell (responding) and DBA/2 mouse spleen cell (stimulating); assay type: cell-based
Procedure: MLR tests were carried out to determine the immunosuppressive effect of an immunosuppressive candidate material. When a responding cell (BALB/c mouse spleen cell) and a stimulating cell (DBA/2 mouse spleen cell) were cultured separately, the cells grew little. On the contrary, when the cells were simultaneously cultured, the cells were proliferated due to induction of an antigen-antibody reaction. The proliferated cells were treated with the immunosuppressive candidate material for measurement of the proliferation inhibitory extent.
After culturing for 72 hours at a CO2 incubator, a 20 μl MTS solution was added to each well, followed by further culturing for 2 to 4 hours and measuring OD at […] by using ELISA.

TA1537 = experiment: Reverse mutation assay (Ames test), TA1537
Procedure: as §1, §2

[2] = test system: WP2 uvrA strains (tryptophan auxotrophic strains); experiment: Reverse mutation assay (Ames test), E. coli WP2 uvrA
Procedure: as §1, §2

ICR mice [3] = experiment: Oral administration toxicity assay; details: for Days for the test (death) Total: deaths/mice; for Days for the Test (death) 4: day 4
ICR mice [4] = experiment: Acute (intravenous administration) toxicity assay; details: for Days for the test (death) 2: day 2; for Days for the test (death) Total: deaths/mice; for Days for the test (death) 1: day 1
TA98 = test system: TA98
Procedure: as §1, §2

[5] = Positive control group, TA1535, 0.5 μg/Plate
[6] = Positive control group, TA100, 0.5 μg/Plate
[7] = Positive control group, TA1537, 50 μg/Plate
[8] = TA1525 (so in the source), 317.5 μg/Plate
[9] = TA1525 (so in the source), 625 μg/Plate
[10] = TA1525 (so in the source), 1250 μg/Plate
[11] = TA1525 (so in the source), 2500 μg/Plate
[12] = TA1525 (so in the source), 5000 μg/Plate

SMILES: [N-]=[N+]=[N-] [Sodium azide, sodium azide]
- Colony/Plate S-9 Mixture (+) (TA1535; [5]): 444 Colony/Plate
- Colony/Plate S-9 Mixture (−) (TA1535; [5]): 279 Colony/Plate
- Colony/Plate S-9 Mixture (+) (TA100; [6]): 616 Colony/Plate
- Colony/Plate S-9 Mixture (−) (TA100; [6]): 453 Colony/Plate

SMILES: COc1cc2c(c(OC)c1OC)-c1ccc(SC)c(=O)cc1[C@@H](NC(=O)c1cccc(CCl)c1)CC2 [Compound 9]
- immunosuppressive effect [1]: good immunosuppressive effect

SMILES: Nc1c2ccccc2nc2ccccc12 [Compound 9-AA, 9-aminoacridine]
- Colony/Plate S-9 Mixture (+) (TA1537; [7]): 588 Colony/Plate
- Colony/Plate S-9 Mixture (−) (TA1537; [7]): 175 Colony/Plate

SMILES: COc1cc2c(c(OC)c1OC)-c1ccc(S(C)(=O)=O)c(=O)cc1C(NC(=O)CCCO[N+](=O)[O-])CC2 (stereo not drawn) [Compound 10, 4-nitrooxy-N-(1,2,3-trimethoxy-10-methylsulfonyl-9-oxo-5,6,7,9-tetrahydro-benzo[a]heptarene-7-yl)-butylamide]
- immunosuppressive effect ([1]; MLR, FIG. 1): good immunosuppressive effect

SMILES: COc1cc2c(c(OC)c1OC)-c1ccc(OC)c(=O)cc1[C@@H](NC(C)=O)CC2 [Colchicine]
- Colony/Plate S-9 Mixture (+) (TA1537; TA1537, 317.5 μg/Plate): 20 Colony/Plate
- Colony/Plate S-9 Mixture (−) (TA1537; TA1537, 317.5 μg/Plate): 17 Colony/Plate
- Colony/Plate S-9 Mixture (+) (TA1537; TA1537, 625 μg/Plate): 18 Colony/Plate
- Colony/Plate S-9 Mixture (−) (TA1537; TA1537, 625 μg/Plate): 14 Colony/Plate
- Colony/Plate S-9 Mixture (+) (TA1537; TA1537, 1250 μg/Plate): 18 Colony/Plate
- Colony/Plate S-9 Mixture (−) (TA1537; TA1537, 1250 μg/Plate): 10 Colony/Plate
- Colony/Plate S-9 Mixture (+) (TA1537; TA1537, 2500 μg/Plate): 21 Colony/Plate
- Colony/Plate S-9 Mixture (−) (TA1537; TA1537, 2500 μg/Plate): 8 Colony/Plate
- Colony/Plate S-9 Mixture (+) (TA1537; TA1537, 5000 μg/Plate): 21 Colony/Plate
- Colony/Plate S-9 Mixture (−) (TA1537; TA1537, 5000 μg/Plate): 9 Colony/Plate
- Colony/Plate S-9 Mixture (+) ([2]; 317.5 μg/Plate): 11 Colony/Plate
- Colony/Plate S-9 Mixture (−) ([2]; 317.5 μg/Plate): 10 Colony/Plate
- Colony/Plate S-9 Mixture (+) ([2]; 625 μg/Plate): 14 Colony/Plate
- Colony/Plate S-9 Mixture (−) ([2]; 625 μg/Plate): 6 Colony/Plate
- Colony/Plate S-9 Mixture (+) ([2]; 1250 μg/Plate): 14 Colony/Plate
- Colony/Plate S-9 Mixture (−) ([2]; 1250 μg/Plate): 11 Colony/Plate
- Colony/Plate S-9 Mixture (+) ([2]; 2500 μg/Plate): 12 Colony/Plate
- Colony/Plate S-9 Mixture (−) ([2]; 2500 μg/Plate): 10 Colony/Plate
- Colony/Plate S-9 Mixture (+) ([2]; 5000 μg/Plate): 8 Colony/Plate
- Colony/Plate S-9 Mixture (−) ([2]; 5000 μg/Plate): 11 Colony/Plate
- Days for the test (death) Total (ICR mice [3]; 5 mg/kg): 0/5
- Days for the test (death) Total (ICR mice [3]; 10 mg/kg): 0/5
- Days for the Test (death) 3 (ICR mice [3]; 25 mg/kg, day 3): 3
- Days for the Test (death) 4 (ICR mice [3]; 25 mg/kg): 1
- Days for the test (death) Total (ICR mice [3]; 25 mg/kg): 4/5
- Days for the test (death) 2 (ICR mice [3]; 50 mg/kg, day 2): 3
- Days for the Test (death) 4 (ICR mice [3]; 50 mg/kg): 1
- Days for the Test (death) 5 (ICR mice [3]; 50 mg/kg, day 5): 1
- Days for the test (death) Total (ICR mice [3]; 50 mg/kg): 5/5
- Days for the test (death) 2 (ICR mice [4]; 2 mg/kg): 3
- Days for the Test (death) 3 (ICR mice [4]; 2 mg/kg, day 3): 1
- Days for the test (death) 6 (ICR mice [4]; 2 mg/kg, day 6): 1
- Days for the test (death) Total (ICR mice [4]; 2 mg/kg): 5/5
- Days for the test (death) 1 (ICR mice [4]; 5 mg/kg): 1
- Days for the test (death) 2 (ICR mice [4]; 5 mg/kg): 4
- Days for the test (death) Total (ICR mice [4]; 5 mg/kg): 5/5
- Days for the test (death) 1 (ICR mice [4]; 10 mg/kg): 4
- Days for the test (death) 2 (ICR mice [4]; 10 mg/kg): 1
- Days for the test (death) Total (ICR mice [4]; 10 mg/kg): 5/5
- Colony/Plate S-9 Mixture (+) (TA1535; [8]): 13 Colony/Plate
- Colony/Plate S-9 Mixture (−) (TA1535; [8]): 18 Colony/Plate
- Colony/Plate S-9 Mixture (+) (TA1535; [9]): 13 Colony/Plate
- Colony/Plate S-9 Mixture (−) (TA1535; [9]): 15 Colony/Plate
- Colony/Plate S-9 Mixture (+) (TA1535; [10]): 7 Colony/Plate
- Colony/Plate S-9 Mixture (−) (TA1535; [10]): 17 Colony/Plate
- Colony/Plate S-9 Mixture (+) (TA1535; [11]): 12 Colony/Plate
- Colony/Plate S-9 Mixture (−) (TA1535; [11]): 17 Colony/Plate
- Colony/Plate S-9 Mixture (+) (TA1535; [12]): 10 Colony/Plate
- Colony/Plate S-9 Mixture (−) (TA1535; [12]): 13 Colony/Plate
- Colony/Plate S-9 Mixture (+) (TA98; TA98, 317.5 μg/Plate): 37 Colony/Plate
- Colony/Plate S-9 Mixture (−) (TA98; TA98, 317.5 μg/Plate): 29 Colony/Plate
- Colony/Plate S-9 Mixture (+) (TA98; TA98, 625 μg/Plate): 32 Colony/Plate
- Colony/Plate S-9 Mixture (−) (TA98; TA98, 625 μg/Plate): 29 Colony/Plate
- Colony/Plate S-9 Mixture (+) (TA98; TA98, 1250 μg/Plate): 33 Colony/Plate
- Colony/Plate S-9 Mixture (−) (TA98; TA98, 1250 μg/Plate): 29 Colony/Plate
- Colony/Plate S-9 Mixture (+) (TA98; TA98, 2500 μg/Plate): 37 Colony/Plate
- Colony/Plate S-9 Mixture (−) (TA98; TA98, 2500 μg/Plate): 24 Colony/Plate
- Colony/Plate S-9 Mixture (+) (TA98; TA98, 5000 μg/Plate): 28 Colony/Plate
- Colony/Plate S-9 Mixture (−) (TA98; TA98, 5000 μg/Plate): 26 Colony/Plate
- Colony/Plate S-9 Mixture (+) (TA100; TA100, 317.5 μg/Plate): 79 Colony/Plate
- Colony/Plate S-9 Mixture (−) (TA100; TA100, 317.5 μg/Plate): 115 Colony/Plate
- Colony/Plate S-9 Mixture (+) (TA100; TA100, 625 μg/Plate): 76 Colony/Plate
- Colony/Plate S-9 Mixture (−) (TA100; TA100, 625 μg/Plate): 110 Colony/Plate
- Colony/Plate S-9 Mixture (+) (TA100; TA100, 1250 μg/Plate): 100 Colony/Plate
- Colony/Plate S-9 Mixture (−) (TA100; TA100, 1250 μg/Plate): 112 Colony/Plate
- Colony/Plate S-9 Mixture (+) (TA100; TA100, 2500 μg/Plate): 91 Colony/Plate
- Colony/Plate S-9 Mixture (−) (TA100; TA100, 2500 μg/Plate): 115 Colony/Plate
- Colony/Plate S-9 Mixture (+) (TA100; TA100, 5000 μg/Plate): 78 Colony/Plate
- Colony/Plate S-9 Mixture (−) (TA100; TA100, 5000 μg/Plate): 108 Colony/Plate

SMILES: COc1cc2c(c(OC)c1OC)-c1ccc(SC)c(=O)cc1[C@@H](NC(=O)c1ccc(CO[N+](=O)[O-])cc1)CC2 [Compound 11]
- immunosuppressive effect [1]: good immunosuppressive effect
